# Source: publication PMC9674830, “A glutamine-based single α-helix scaffold to target globular proteins” (Nature Communications, 2022)
# Where two headings read alike, the source gives them in different places. Starred links: 1 amine or outer side, 2 acyl side, 3 side chain; linkers in the order of their positions; H or OH if unused. Positions of bridges follow the written chain, without caps; N, C: chain ends. Non-standard residues stand in square brackets, D forms with d. Residues, ends and D or L forms follow the SMILES beside them. No end group written: not given here. ξ: configuration not given here. ξαMeNle(6-ylidene) = CC(CCCC=[*:3])(N[*:1])C(=O)[*:2]
# Tests used:
# [1] = Peptide stability in human serum; assay type: in vitro ADME; settings: for peptide in human serum over time, mean / remaining at 0.08 h, 300 μM / remaining at 0.25 h, 300 μM / remaining at 0.5 h, 300 μM / remaining at 1 h, 300 μM / remaining at 4 h, 300 μM / remaining at 6 h, 300 μM / remaining at 8 h, 300 μM / remaining at 24 h, 300 μM: SD, human serum, mean; for peptide in human serum over time, mean: in % (unit assumed); for remaining at 0.08 h, 300 μM: Time 0.08 (time unit inferred); for remaining at 0.08 h, 300 μM / remaining at 0.25 h, 300 μM / remaining at 0.5 h, 300 μM / remaining at 1 h, 300 μM / remaining at 4 h, 300 μM / remaining at 6 h, 300 μM / remaining at 8 h, 300 μM / remaining at 24 h, 300 μM: read-out: peptide in human serum over time, mean; for remaining at 0.25 h, 300 μM: Time 0.25 (time unit inferred); for remaining at 0.5 h, 300 μM: Time 0.50 (time unit inferred); for remaining at 1 h, 300 μM: Time 1.00 (time unit inferred); for remaining at 4 h, 300 μM: Time 4.00 (time unit inferred); for remaining at 6 h, 300 μM: Time 6.00 (time unit inferred); for remaining at 8 h, 300 μM: Time 8.00 (time unit inferred); for remaining at 24 h, 300 μM: Time 24.00 (time unit inferred); for half-life at 300 μM: human serum (Sigma-Aldrich), 1.5 mM peptide in 20 mM sodium phosphate pH 7.4 diluted 1:9, final 300 μM, 310 K, 24 h, methanol precipitation, HPLC peak area of intact peptide vs t = 0, three independent replicates
# Procedure: Supplementary Figure 2 | Stability in human serum and internalization in human cells of peptides (P3-7)3 and (P3-7)3 Ctrl. a Human serum stability assay of peptides (P3-7)3, (P3-7)3 Ctrl and Angiopep-2 (sequence:
# , a positive control for this assay 1), measured at increasing time points by monitoring the area of the HPLC peak corresponding to the intact peptide over the area of the same peak at t = […]
# Peptide stability in human serum
# 1.5 mM solutions of the P(3-7)3, P(3-7)3 Ctrl and Angiopep-2 peptides were prepared as detailed above in 20 mM sodium phosphate, pH 7.4 and diluted in human serum (Sigma-Aldrich, Burlington, MA, USA) (1:9 dilution) to a final concentration of 300 μM. The incubation was performed at 310 K for 24 h, taking aliquots of 50 μL at several time points.
# These samples were treated with 400 μL of methanol to precipitate the serum proteins and centrifuged for 30 min at 277 K. The supernatant was filtered and analyzed by HPLC to calculate the percentage of intact peptide in the sample. HPLC chromatograms were obtained on an Agilent 1260 Infinity II system with a PDA detector, with an Agilent Poroshell 120-EC18 (50 x 3 mm x 2.7 μm) column. The flow rate was 1 mL min-1 and acetonitrile (1% TFA) and water (1% TFA) were used as solvents, with 4 minute linear gradients from 5 % to 95 % of acetonitrile thermostated at 313 K. […]
# RAP74-CTD = target: T1, RAP74-CTD (Homo sapiens, UniProt P35269); experiment: NMR chemical shift perturbation titration of peptides into 15N RAP74-CTD (KD); assay type: binding; settings: 298 K, pH 7.4; for KD range in words: NMR CSP titration, RAP74-CTD 50 μM; for Kd: 1H-15N BEST-TROSY CSP titration, 15N RAP74-CTD 50 μM, read-out: NMR-derived KD
# T1 construct: spanning residues 450-517; His6-MBP (with TEV site) (N, cleaved yes); made in house; host or cells: E. coli Rosetta (DE3)pLysS
# T1 sequence (P35269 450-517): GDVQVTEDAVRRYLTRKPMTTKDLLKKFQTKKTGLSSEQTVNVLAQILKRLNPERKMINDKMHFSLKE
# Procedure: Recombinant samples with ^15N isotope enrichment of the C-terminal domain of subunit 1 of the general transcription regulator TFIIF (RAP74-CTD), spanning residues 450-517, were obtained as described previously. A codon-optimized synthetic gene cloned in a pDONR221 vector was obtained from GeneArt (Thermo Fisher Scientific, Waltham, MA, USA) and subcloned into a pDEST-His6MBP vector obtained from Addgene. Rosetta (DE3)pLysS competent cells (Novagen, Merck KGaA, Darmstadt, Germany) were grown in MOPS medium with ^15NH4Cl as the only nitrogen source (310 K, induction at OD600 = 0.7, 1 mM IPTG, harvesting 3 h after induction). Soluble fractions of cell lysates from sonication in lysis buffer (50 mM Tris-HCl, 1 M NaCl, 10 mM imidazole, pH 8.0) were purified by IMAC, and fractions containing the His6MBP-TEV-RAP74-CTD fusion were dialyzed at 277 K overnight against cleavage buffer (50 mM Tris-HCl, 200 mM NaCl, 0.5 mM EDTA, pH 8.0) in the presence of TEV protease (50 μg/mL). A second IMAC step was performed and the flow-through containing the RAP-CTD was loaded onto a HiTrap SP HP cation exchange column followed by a size exclusion chromatography step on a Superdex 75 GL 10/300 column equilibrated with NMR buffer (20 mM sodium phosphate, 0.1% trifluoroacetic acid, pH 7.4), both mounted in an Äkta Purifier System (GE Healthcare, Chicago, IL, USA). The sample was concentrated to 100 μM using an Amicon Ultra 15 mL centrifugal filter (Merck KGaA, Darmstadt, Germany).
# Before the experiment, both the protein and the peptide were dialyzed (277 K, two dialysis steps) in the same preparation of NMR buffer (20 mM sodium phosphate, 0.1% trifluoroacetic acid, pH 7.4), using a Pur-A-Lyzer (Sigma-Aldrich, Burlington, MA, USA) and a Micro Float-A-Lyzer (Spectrum Laboratories, San Francisco, CA, USA) respectively. The chemical shift assignment of RAP74-CTD was reported previously (BMRB code 27288). Averaged ^1H and ^15N chemical shift perturbations (CSPs) were calculated as:2 ΔδAV=(Δδ1H)^2+1/5Δδ15N^2
# Dissociation constants, KD, and averaged CSP amplitude, Δδmax, for δ, δstpl, γ and γstpl peptide binding to RAP74-CTD were obtained by a global fitting (nonlinear regression) of the 10% peaks with the largest averaged CSPs to the following single-site binding model (1:1 stoichiometry):3 Δδ=Δδmax([Protein]+[Peptide]+KD)−([Protein]+[Peptide]+KD)^2−4[Protein][Peptide]/2[Protein]
# [2] = Time 0.00 (time unit not given)
"remaining at 0.08 h, 300 μM [1] [%]","remaining at 0.25 h, 300 μM [1] [%]","remaining at 6 h, 300 μM [1] [%]","remaining at 8 h, 300 μM [1] [%]",KD range in words (RAP74-CTD),Kd (RAP74-CTD; lower bound) [µM],Compound,also measured
52,72.6,16.7,18.3,–,–,"C[C@@H](O)[C@H](N)C(=O)N[C@@H](Cc1ccccc1)C(=O)N[C@@H](Cc1ccccc1)C(=O)N[C@@H](Cc1ccc(O)cc1)C(=O)NCC(=O)NCC(=O)N[C@@H](CO)C(=O)N[C@@H](CCCNC(=N)N)C(=O)NCC(=O)N[C@@H](CCCCN)C(=O)N[C@@H](CCCNC(=N)N)C(=O)N[C@@H](CC(N)=O)C(=O)N[C@@H](CC(N)=O)C(=O)N[C@@H](Cc1ccccc1)C(=O)N[C@@H](CCCCN)C(=O)N[C@H](C(=O)N[C@@H](CCC(=O)O)C(=O)N[C@@H](CCC(=O)O)C(=O)N[C@@H](Cc1ccc(O)cc1)C(=O)O)[C@@H](C)O [Angiopep-2, reference compound]","peptide in human serum over time, mean [1, 2]: 100.01; remaining at 0.5 h, 300 μM [1]: 32.2%; remaining at 1 h, 300 μM [1]: 73.3%; remaining at 4 h, 300 μM [1]: 24.9%; remaining at 24 h, 300 μM [1]: 22.5%"
–,–,–,–,mid-micromolar range,–,CC(C)C[C@@H]1NC(=O)[C@H](CCC(N)=O)NC(=O)C(C)(NC(=O)[C@H](Cc2c[nH]c3ccccc23)NC(=O)[C@H](CO)NC(=O)[C@H](C)NC(=O)[C@H](CO)NC(=O)[C@H](C)NC(=O)CNC(=O)[C@@H]2CCCN2C(=O)[C@H](CCCCN)NC(=O)[C@@H](N)CCCCN)CCCC=CCCCC(C)(C(=O)N[C@@H](CCC(=O)O)C(=O)N[C@@H](CCC(=O)O)C(=O)N[C@@H](CCC(N)=O)C(=O)N[C@@H](C)C(=O)N[C@@H](C)C(=O)N[C@@H](CCC(N)=O)C(=O)N[C@@H](C)C(=O)N[C@@H](C)C(=O)N[C@@H](CCCCN)C(=O)N[C@@H](CCCCN)C(=O)O)NC(=O)[C@H](Cc2ccccc2)NC1=O (stereo partly drawn) [γStpl],–
–,–,–,–,millimolar range,–,CC(C)C[C@@H]1NC(=O)[C@H](CCC(N)=O)NC(=O)C(C)(NC(=O)[C@H](CCC(=O)O)NC(=O)[C@H](CCC(N)=O)NC(=O)[C@H](C)NC(=O)[C@H](C)NC(=O)[C@H](C)NC(=O)[C@H](C)NC(=O)[C@H](CO)NC(=O)[C@H](C)NC(=O)CNC(=O)[C@@H]2CCCN2C(=O)[C@H](CCCCN)NC(=O)[C@@H](N)CCCCN)CCCC=CCCCC(C)(C(=O)N[C@@H](CC(C)C)C(=O)N[C@@H](C)C(=O)N[C@@H](CCC(N)=O)C(=O)N[C@@H](CCC(=O)O)C(=O)N[C@@H](CC(C)C)C(=O)N[C@@H](CCC(N)=O)C(=O)N[C@@H](C)C(=O)N[C@@H](C)C(=O)N[C@@H](CCC(N)=O)C(=O)N[C@@H](C)C(=O)N[C@@H](C)C(=O)N[C@@H](CCCCN)C(=O)N[C@@H](CCCCN)C(=O)N[C@@H](Cc2ccc(O)cc2)C(=O)O)NC(=O)[C@H](C)NC1=O (stereo partly drawn) [δStpl] (H-KKPGASAAAAQE[ξαMeNle(6-ylidene)]QLA[ξαMeNle(6-ylidene)]LAQELQAAQAAKKY-OH; staple 13-17; N-terminus and C-terminus assumed),–
96.4,97.3,115,98.4,–,–,KKPGASAAAAQAAQAAQAAQAAQAAQAAKKY [(P3-7)3 Ctrl],"peptide in human serum over time, mean [1, 2]: 100.26; remaining at 0.5 h, 300 μM [1]: 114%; remaining at 1 h, 300 μM [1]: 115%; remaining at 4 h, 300 μM [1]: 94.5%; remaining at 24 h, 300 μM [1]: 110%; half-life at 300 μM [1]: > 24 h"
–,–,–,–,–,> 1000,KKPGASAAAAQEAQLAQLAQELQAAQAAKKY [δctrl],–
–,–,–,–,–,> 1000,KKPGASASWAQLFQEEQAAQAAKK [γCtrl],–
113,120,103,86.3,–,> 1000,KKPGASLAALQALQALQALQALQAAQAAKKY [(P3-7)3],"peptide in human serum over time, mean ([1]; Time 0.50 (time unit not given)): 137.50; peptide in human serum over time, mean ([1]; Time 1.00 (time unit not given)): 122.97; peptide in human serum over time, mean ([1]; Time 4.00 (time unit not given)): 139.36; peptide in human serum over time, mean ([1]; Time 24.00 (time unit not given)): 128.28; half-life at 300 μM [1]: > 24 h"
–,–,–,–,–,–,KKPGASLAALQELQLLQLLQELQAAQAAKKY [δ],"Kd (RAP74-CTD; 20 mM sodium phosphate, 0.1% TFA, global fit of 10% peaks with largest CSPs, 1:1 model, error by Monte-Carlo): 131 ± 20 µM"
–,–,–,–,mid-micromolar range,–,KKPGASLSWLQLFQEEQAAQAAKK [γ],–
–,–,–,–,–,> 1000,"SAAASSSWHTLFTAEEGQLYG [WHTLF, reference compound]",–
